From patent US9562035B2, “Benzamide derivative useful as FASN inhibitors for the treatment of cancer” (Janssen Pharmaceutica NV, priority 2013, dated 2017)

Key:
A2780 ovarian cells [1] = assay: A2780 Ovarian Cell Proliferation Assay in Lipid Reduced Medium, without Palmitate; type: cell-based; settings: Homo sapiens, A2780; lipid reduced medium, without palmitate, 96 h, MTT; read-out: Proliferation A2780 w/o Palmitate pIC50 (converted)
Method in brief: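 A2780 cells were seeded in 10% FCS medium and switched next day to 10% lipid-reduced serum without palmitate. Compounds at 0.01–30 μM were added with 0.2% DMSO, 0.2% fatty-acid-free BSA and 0.25% ethanol final. After 96 h, MTT absorbance at 544 nm was normalized to plate controls, and IC50/pIC50 came from a 4-parameter logistic fit.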

[2] = target: T1, FASN Keto-reductase Domain (Homo sapiens, UniProt P49327); assay: Fatty Acid Synthase Keto-Reductase Domain (FASN KR) Inhibition; type: biochemical; settings: mean where tested more than once; read-out: FASN K-R Domain pIC50 (converted)
T1 construct: 10 μL hFASN enzyme (full length, 300 ng, purified in house) and 360 μM NADPH; made in house
Method in brief: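 Full-length human FASN (300 ng) in 100 mM KH2PO4 pH 7.5 with 360 μM NADPH and 180 mM ethyl acetoacetate (stock); A340 decrease read over 20 min at room temperature.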

[3] = target: T2, hFASN enzyme (full length) (Homo sapiens, UniProt P49327); assay: Fatty Acid Synthase (FASN) Inhibition Scintillation Proximity Assay; type: biochemical; settings: for IC50: mean where tested more than once, ~ = standard error of pIC50 larger than 0.5; for inhibition at 10 µM: read-out: FASN % Effect @1E−05M
T2 construct: 10 μL hFASN enzyme (full length, 300 ng, purified in house); made in house
Method in brief: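 Purified full-length human FASN (300 ng) incubated 60 min at room temperature with NADPH, [3H]-acetyl-CoA and malonyl-CoA in 100 mM KH2PO4 pH 7.5, 1 mM DTT; compound at 30 μM to 0.01 μM. [3H]-palmitate captured by SPA imaging beads; IC50 from 4-parameter fit, reported as pIC50.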

A2780 ovarian cells [4] = assay: A2780 Ovarian Cell Proliferation Assay in Lipid Reduced Medium, with Palmitate (control); type: cell-based; settings: Homo sapiens, A2780; lipid reduced medium, 25 μM palmitate, 96 h, MTT; read-out: Proliferation A2780 with Palmitate pIC50 (converted)
Method in brief: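 A2780 cells were seeded in RPMI1640 with 10% FCS, then switched next day to medium with 10% lipid-reduced serum. Compound was added with final 25 μM palmitate, 0.2% fatty-acid-free BSA and 0.2% DMSO, and incubated 96 h at 37 °C. Read-out was MTT absorbance at 544 nm; pIC50 = −log(IC50) from curve fit.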

T1 sequence (P49327 whole entry, the tested form may be a part): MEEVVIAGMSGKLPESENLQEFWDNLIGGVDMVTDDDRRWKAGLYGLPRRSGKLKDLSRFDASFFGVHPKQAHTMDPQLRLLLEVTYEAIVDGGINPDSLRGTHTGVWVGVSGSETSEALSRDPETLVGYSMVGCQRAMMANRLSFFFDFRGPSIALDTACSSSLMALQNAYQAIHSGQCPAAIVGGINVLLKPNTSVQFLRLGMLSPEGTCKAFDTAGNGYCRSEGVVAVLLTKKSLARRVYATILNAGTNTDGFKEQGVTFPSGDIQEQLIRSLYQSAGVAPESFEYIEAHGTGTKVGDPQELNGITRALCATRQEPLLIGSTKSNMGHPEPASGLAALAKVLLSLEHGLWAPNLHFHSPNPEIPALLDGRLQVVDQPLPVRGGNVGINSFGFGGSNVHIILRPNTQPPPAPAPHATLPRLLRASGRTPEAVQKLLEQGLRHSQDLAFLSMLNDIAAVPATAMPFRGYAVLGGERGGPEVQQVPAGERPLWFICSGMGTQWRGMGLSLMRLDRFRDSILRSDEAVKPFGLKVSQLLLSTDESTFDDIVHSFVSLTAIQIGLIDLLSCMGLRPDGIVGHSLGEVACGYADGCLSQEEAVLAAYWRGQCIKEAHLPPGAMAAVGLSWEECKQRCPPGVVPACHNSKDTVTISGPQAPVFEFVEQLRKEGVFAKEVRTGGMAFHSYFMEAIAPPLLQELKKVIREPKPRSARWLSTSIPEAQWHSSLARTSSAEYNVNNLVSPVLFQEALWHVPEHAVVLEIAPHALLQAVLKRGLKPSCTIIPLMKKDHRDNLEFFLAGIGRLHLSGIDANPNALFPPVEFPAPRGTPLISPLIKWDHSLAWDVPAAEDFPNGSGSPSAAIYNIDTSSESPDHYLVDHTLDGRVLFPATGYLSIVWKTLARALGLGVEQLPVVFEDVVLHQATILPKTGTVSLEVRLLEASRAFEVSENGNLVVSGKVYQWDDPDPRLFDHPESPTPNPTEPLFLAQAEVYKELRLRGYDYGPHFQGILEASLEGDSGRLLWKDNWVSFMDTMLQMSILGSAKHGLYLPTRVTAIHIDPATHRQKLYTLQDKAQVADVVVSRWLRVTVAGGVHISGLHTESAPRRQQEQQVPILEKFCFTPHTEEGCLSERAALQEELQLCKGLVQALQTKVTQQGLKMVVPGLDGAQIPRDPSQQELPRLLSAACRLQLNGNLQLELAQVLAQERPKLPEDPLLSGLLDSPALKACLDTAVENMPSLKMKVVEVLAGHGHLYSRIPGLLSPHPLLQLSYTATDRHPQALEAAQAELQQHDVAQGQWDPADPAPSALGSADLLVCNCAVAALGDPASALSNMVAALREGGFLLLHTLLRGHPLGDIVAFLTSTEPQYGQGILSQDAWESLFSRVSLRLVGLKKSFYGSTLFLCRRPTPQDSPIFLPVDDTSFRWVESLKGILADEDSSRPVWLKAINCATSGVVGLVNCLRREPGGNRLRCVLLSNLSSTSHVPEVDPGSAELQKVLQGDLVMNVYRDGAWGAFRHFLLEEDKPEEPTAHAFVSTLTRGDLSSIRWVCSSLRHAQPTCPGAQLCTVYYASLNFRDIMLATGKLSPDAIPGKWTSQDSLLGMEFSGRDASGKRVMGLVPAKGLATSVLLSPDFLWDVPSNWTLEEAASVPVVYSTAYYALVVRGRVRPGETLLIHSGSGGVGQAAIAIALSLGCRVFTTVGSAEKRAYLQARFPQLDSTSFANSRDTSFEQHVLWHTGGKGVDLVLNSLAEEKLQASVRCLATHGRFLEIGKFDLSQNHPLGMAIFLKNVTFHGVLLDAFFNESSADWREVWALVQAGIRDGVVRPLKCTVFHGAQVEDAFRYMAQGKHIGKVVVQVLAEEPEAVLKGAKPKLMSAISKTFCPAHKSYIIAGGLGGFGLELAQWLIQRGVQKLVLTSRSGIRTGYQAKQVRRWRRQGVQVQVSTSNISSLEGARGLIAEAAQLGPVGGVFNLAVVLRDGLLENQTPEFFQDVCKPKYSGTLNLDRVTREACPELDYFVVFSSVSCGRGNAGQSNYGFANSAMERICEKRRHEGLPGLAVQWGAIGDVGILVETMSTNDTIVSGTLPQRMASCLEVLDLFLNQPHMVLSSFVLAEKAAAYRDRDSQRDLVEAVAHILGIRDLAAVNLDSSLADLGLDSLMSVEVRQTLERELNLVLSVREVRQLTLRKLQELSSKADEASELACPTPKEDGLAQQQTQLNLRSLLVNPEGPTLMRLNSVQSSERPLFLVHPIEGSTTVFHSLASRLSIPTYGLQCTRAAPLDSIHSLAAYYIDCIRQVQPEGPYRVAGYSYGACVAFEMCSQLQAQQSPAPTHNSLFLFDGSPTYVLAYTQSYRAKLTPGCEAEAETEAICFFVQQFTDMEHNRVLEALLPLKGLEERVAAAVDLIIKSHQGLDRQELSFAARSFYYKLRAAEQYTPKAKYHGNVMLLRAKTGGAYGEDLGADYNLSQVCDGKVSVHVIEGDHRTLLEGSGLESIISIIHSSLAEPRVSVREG
T2 sequence (P49327 whole entry): as the sequence (P49327 whole entry, the tested form may be a part) above

Row | SMILES | IC50 (A2780 ovarian cells [1]) | IC50 [2] | IC50 [3] | inhibition at 10 µM [3] | IC50 (A2780 ovarian cells [4])
1 | Cc1ccc(C(=O)N2CCC(c3ccc(-c4cnn(CCO)c4)cc3)CC2)cc1NC(=O)c1ccc(NC(C)C)nc1 [Compound 267, N-(5-(4-(4-(1-(2-hydroxyethyl)-1H-pyrazol-4-yl)phenyl)piperidine-1-carbonyl)-2-methylphenyl)-6-(isopropylamino)nicotinamide] | ~22.4 nM | 58.9 nM | 25.7 nM | 112% | > 10000 nM
2 | Cc1ccc(C(=O)N2CCC(c3ccc(-c4cnn(C)c4)cc3)CC2)cc1NC(=O)C1CCCCC1 [Compound 86, N-(2-methyl-5-(4-(4-(1-methyl-1H-pyrazol-4-yl)phenyl)piperidine-1-carbonyl)phenyl)cyclohexanecarboxamide] | 182 nM | 75.9 nM | 22.4 nM | 106% | > 10000 nM
3 | Cc1ccc(C(=O)N2CCC(c3ccc(-c4cnn(C)c4)cc3)CC2)cc1NC(=O)c1sccc1Cl [Compound 99, 3-chloro-N-(2-methyl-5-(4-(4-(1-methyl-1H-pyrazol-4-yl)phenyl)piperidine-1-carbonyl)phenyl)thiophene-2-carboxamide] | 389 nM | 295 nM | 107 nM | 92% | 6310 nM
4 | Cc1ccc(C(=O)N2CCC(c3ccc(-c4cnn(C)c4)cc3)CC2)cc1NC(=O)C1CN(CC(C)C)C1 [Compound 210, 1-isobutyl-N-(2-methyl-5-(4-(4-(1-methyl-1H-pyrazol-4-yl)phenyl)piperidine-1-carbonyl)phenyl)azetidine-3-carboxamide] | 110 nM | 309 nM | 85.1 nM | 108% | > 10000 nM
5 | Cc1ccc(C(=O)N2CCC(c3ccc(-c4cccc(F)c4)cc3)CC2)cc1NC(=O)c1ccc(NC(C)C)nc1 [Compound 230, N-(5-(4-(3′-fluoro-[1,1′-biphenyl]-4-yl)piperidine-1-carbonyl)-2-methylphenyl)-6-(isopropylamino)nicotinamide] | 692 nM | 525 nM | 363 nM | 79% | 2510 nM
6 | Cc1ccc(C(=O)N2CCC(c3ccc(-c4cnn(C)c4)cc3)CC2)cc1NC(=O)C1CCN(C(=O)C2CC2)C1 (centres unmarked) [Compound 220, 1-(cyclopropanecarbonyl)-N-(2-methyl-5-(4-(4-(1-methyl-1H-pyrazol-4-yl)phenyl)piperidine-1-carbonyl)phenyl)pyrrolidine-3-carboxamide] | 95.5 nM | 174 nM | 67.6 nM | 110% | > 10000 nM
7 | Cc1ccc(C(=O)N2CC(c3ccc(-c4cnn(C)c4)cc3)C2)cc1NC(=O)c1ccccn1 [Compound 80, N-(2-methyl-5-(3-(4-(1-methyl-1H-pyrazol-4-yl)phenyl)azetidine-1-carbonyl)phenyl)picolinamide] | 692 nM | 234 nM | 51.3 nM | 110% | > 15100 nM
8 | COc1cc(Cl)cc(C(=O)Nc2cc(C(=O)N3CCC(c4ccc(-c5cnn(C)c5)cc4)CC3)ccc2C)c1 [Compound 128, 3-chloro-5-methoxy-N-(2-methyl-5-(4-(4-(1-methyl-1H-pyrazol-4-yl)phenyl)piperidine-1-carbonyl)phenyl)benzamide] | ~417 nM | 288 nM | 257 nM | 84% | 6170 nM
9 | Cc1ccc(C(=O)N2CCC(c3ccc(-c4cnn(C)c4)cc3)CC2)cc1NC(=O)C1CCCC1 [Compound 88, N-(2-methyl-5-(4-(4-(1-methyl-1H-pyrazol-4-yl)phenyl)piperidine-1-carbonyl)phenyl)cyclopentanecarboxamide] | 209 nM | 126 nM | 35.5 nM | 100% | > 10000 nM
10 | Cc1ccc(C(=O)N2CC(c3ccc(-c4ccnc5ccccc45)cc3)C2)cc1NC(=O)c1ccc(NC(C)C)nc1 [Compound 39, 6-(isopropylamino)-N-(2-methyl-5-(3-(4-(Quinolin-4-yl)phenyl)azetidine-1-carbonyl)phenyl)nicotinamide] | 33.9 nM | 16.6 nM | 30.2 nM | 111% | 5500 nM
